Entries after “also recorded” stand apart in the source; their conditions may differ.
Columns and labels:
[1] = target: T1, human Rho kinase II (ROCK-II (h)) (Homo sapiens, UniProt O75116); experiment: Commercial inhibition assay with recombinant human ROCKII, IC50 curves (FIGS. 8, 9); assay type: biochemical
T1 construct: purchased
Text: Referring to FIGS. 8 and 9 inhibiton of ROCKII activity and determination of IC50 may also be done throught the use of known (i.e. commercial) inhibition assays that use recombinant human ROCKII.

[2] = system: retinal ganglion cell axons; experiment: Axon regeneration after optic nerve crush, intravitreal injection; assay type: in vivo, rat; details: adult rats, two weeks after crush
Method: To examine the ability of BA-1016 to promote axon regeneration in vivo, the regeneration of retinal ganglion cell axons was examined in the optic nerve after intravitrial injection of BA-1016. In these experiments, BA-1016 was injected at in the vitreous of rats immediately after optic nerve crush that transects all of the retinal ganglion cell (RGC) axons (Lehmann et al, IBID). Two weeks later the animals cholera toxin B subunit was injected in the eye to anterogradelty label the regenerating RGC axons. The next day the animals were killed perfused with saline, and the optic nerves removed for sectioning. Longitudinal sections of the optic nerve were reacted for anti-cholera toxin immunoreactivity to observe the anterogradely labeled fibers.
Rats were anesthetized with isoflorane (2.4%) and the head shaved. […] Retinal ganglion cell axons were labeled by CTB were detected by immunohistochemistry for CTB using a goat anti-choleragenoid (List Biological Labs.), a biotinylated rabbit anti-goat (Vector Labs., Burlingame, Calif.) and DTAF-conjugated streptavidin (Jackson Labs., West Grove, Pa.) as described previously (Lehmann et al IBID)

[3] = system: NG108-15 neuronal cell line; experiment: Rapid bioassay of neurite growth in NG108-15 cells; assay type: cell-based
Method: When neurons are placed on inhibitory substrates in tissue culture, the neurons remain rounded. When an effective Rho kinase inhibitor is added to the neurons, the neurons are able to grow neurites on myelin substrates. The time that it takes for neurons to grow neurites after the addition of a Rho kinase inhibitor is about the same as the time that it takes for neurons to grow neurites if the neurons had been plated on growth permissive substrate such as laminin or polylysine, which time is typically 1 to 2 days in cell culture. An assessment of resulting neurite growth can be scored by visual means. If needed, a quantitative assessment of neurite growth can be performed. This involves measuring after a time such as 1 to 2 days the neurite length a) in control cultures where neurons are plated on myelin substrates and left untreated with Rho kinase inhibitor for such time, b) in positive control cultures, wherein for example neurons are plated on polylysine but left untreated with Rho kinase inhibitor for such time, and c) in cultures analogous to a) and b) that are treated with different concentrations of a Rho kinase inhibitor for such time. […] In this assay, NG108 cells are plated on plastic in the presence or absence of the test substance (a Rho kinase inhibitor). […] The relative efficacy can be assessed by fixing the cultures 5 hours after plating, and counting the number of cells that have grown neurites.
A rapid bioassay is used to determine the effect of a test compounds on the stimulation of neurite growth in vitro. A neuronal cell line, NG108-15 (ATCC HB-12317), is maintained in culture in Dulbecco's minimal essential medium (DMEM) supplemented with 10% fetal bovine serum, Penicillin/Streptomycin and HAT supplement (Gibco/BRL). For the bioassay, the cells are collected by trypsinisation and ressuspended in DMEM supplemented with 5% FBS, Penicillin/Streptomycin, HAT supplement and 0.25 mg/ml cAMP, adjusted to 1.0×10^4 cells/ml. The cells are plated into wells of a 96 well plate at 100 μls (1000 cells)/well. Cells are incubated 4 h at 37° C. and 5% CO2 in presence of small molecules or cethrin at a concentration of 1000 cells per well of a 96-wells plate in a final volume of 100 ul.
After incubation, cells are fixed by adding […] 16% PFA and 5.4 μls 2.5% glutaraldehyde to the media in each well. The wells are stained with cresyl violet 0.05% , 100 μls/well for 15 min. Cells with neurites (length≧one cell body) are counted using an inverted light microscope. The % neurite outgrowth is determined by calculating the number of cells with neurites over the total number of counted cells.

T1 sequence (O75116 whole entry): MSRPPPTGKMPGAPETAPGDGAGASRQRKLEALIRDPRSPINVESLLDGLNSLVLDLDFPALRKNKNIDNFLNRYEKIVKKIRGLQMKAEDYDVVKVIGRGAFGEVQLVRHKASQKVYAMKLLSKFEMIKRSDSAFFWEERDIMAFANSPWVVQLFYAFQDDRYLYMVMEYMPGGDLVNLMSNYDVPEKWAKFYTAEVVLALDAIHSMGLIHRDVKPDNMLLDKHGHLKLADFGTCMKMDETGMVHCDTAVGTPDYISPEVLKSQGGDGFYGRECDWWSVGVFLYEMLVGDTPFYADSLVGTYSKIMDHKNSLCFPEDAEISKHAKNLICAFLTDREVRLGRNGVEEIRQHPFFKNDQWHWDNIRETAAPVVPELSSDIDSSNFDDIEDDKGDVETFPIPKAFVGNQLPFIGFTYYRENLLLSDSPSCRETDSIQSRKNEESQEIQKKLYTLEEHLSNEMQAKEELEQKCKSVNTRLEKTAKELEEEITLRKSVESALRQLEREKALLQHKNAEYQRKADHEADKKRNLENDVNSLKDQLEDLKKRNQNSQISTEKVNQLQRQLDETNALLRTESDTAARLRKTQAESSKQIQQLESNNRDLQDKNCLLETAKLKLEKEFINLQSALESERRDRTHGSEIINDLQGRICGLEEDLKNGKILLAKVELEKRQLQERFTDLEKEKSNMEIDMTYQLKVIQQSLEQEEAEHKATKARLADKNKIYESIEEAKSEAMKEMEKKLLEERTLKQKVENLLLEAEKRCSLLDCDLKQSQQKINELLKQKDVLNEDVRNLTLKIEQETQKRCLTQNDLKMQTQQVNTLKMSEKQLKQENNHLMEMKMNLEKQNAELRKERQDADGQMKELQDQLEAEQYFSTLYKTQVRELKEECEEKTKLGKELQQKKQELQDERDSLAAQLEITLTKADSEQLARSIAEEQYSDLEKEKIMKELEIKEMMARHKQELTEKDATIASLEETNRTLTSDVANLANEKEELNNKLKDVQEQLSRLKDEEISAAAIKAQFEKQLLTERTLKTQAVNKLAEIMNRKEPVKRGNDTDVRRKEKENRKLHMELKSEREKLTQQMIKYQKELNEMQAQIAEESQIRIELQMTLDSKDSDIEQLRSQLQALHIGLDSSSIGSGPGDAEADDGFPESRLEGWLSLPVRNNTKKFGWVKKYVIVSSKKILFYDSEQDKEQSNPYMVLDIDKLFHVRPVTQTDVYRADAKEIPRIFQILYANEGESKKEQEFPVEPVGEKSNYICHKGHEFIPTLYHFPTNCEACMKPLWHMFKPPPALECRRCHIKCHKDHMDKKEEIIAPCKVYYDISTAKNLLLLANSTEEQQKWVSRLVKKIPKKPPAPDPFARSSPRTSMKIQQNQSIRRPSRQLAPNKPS

Substance: (R)-trans-4-(But-3′-en-1′-amino)-N-(4″-pyridyl)cyclohexane Carboxamide Dihydrochloride [BA-1016]
- IC50 [1]: 1900 nM
- distances of axon growth [2]: exceeded 500 um
- axon regeneration after optic nerve injury (FIG. 5) ([2]; Dihydrochloride): can promote axon regeneration; also recorded: RGC axons were observed
- efficacy of the stereoisomers compared (FIG. 2) ([3]; BA-1016 versus BA-1017): better efficacy
- neurite outgrowth (FIG. 2) ([3]; NG108 cells, 3.1 to 31 μM): promote neurite outgrowth

Reference: patent US20040138272A1, “1,4-Substituted cyclohexane derivatives” (priority 2002, published 2004)
